This note sets out measurements from patent publication US9464064B2, “HCV helicase inhibitors and methods of use thereof” (University of Kansas, priority 2011, dated 2016).

Read-outs that look alike come from different tables or passages of the source.

Series [1] deals with T1, HCV NS3 helicase NS3h_1b(con1) (Hepatitis C virus genotype 1b, UniProt Q9WMX2).
T1 construct: truncated C-terminally His-tagged NS3 proteins lacking the N-terminal protease, called NS3h; His-tag (C); made in house
As to the kind of experiment: biochemical. The class given is biochemical, hepatitis C virus genotype 1b(con1). The text has this: (§1) All oligonucleotides were purchased from Integrated DNA Technologies (IDT, Coralville, Iowa). The partially duplex DNA substrates used in MBHAs consisted of a helicase substrate forming 25 base pairs and consists of a 45-mer bottom strand 5′-GCTCCCCGTTCATCGATTGGGGAGC(T)20-3′ (SEQ ID NO:1) and the 25-mer HCV top strand 5′-Cy5-GCTCCCCAATCGATGAACGGGGAGC-IBRQ-3′ (SEQ ID NO:2). The 19 base pair RNA substrate used in MBHAs was composed of a 39 nucleotide long bottom strand 5′-AGU GCC UUG ACG AUA CAG C(U)20-3′ (SEQ ID NO:3) and the 24 nucleotide long top strand 5′-Tye^665-AGUGCGCUGUAUCGUCAAGGCACU-IBRQSp-3′ (SEQ ID NO:4). Underlined areas denote hairpin-forming regions. DNA and RNA substrates were annealed and purified as described previously (Belon & Frick (2008) BioTechniques 45:433-40, 442).
The cloning, expression, and purification of His-tagged recombinant HCV NS3 protein have been described previously (Lam, et al. (20030 J. Virol. 77:3950-61; Heck, et al. (2008) Antimicrob. Agents Chemother. 52:1901-11; Frick et al. (2010) Methods Mol. Biol. 587:223-233; Belon, et al. & Frick (2009) J. Mol. Biol. 388:851-864).
(§2) All molecular beacon-based helicase assays (MBHAs) were performed according to known methods (Belon & Frick (2008) supra; Belon & Frick (2009) supra). […] In each flat, black 384-well plate, 56 compounds were tested, in triplicate, along with three negative controls (DMSO only), three positive controls (500 nM dT20), and two wells with no enzyme. Fluorescence was read before ATP (F0) addition and 30 minutes after ATP was added to 1 mM (F30) using a Tecan Infinite M200 fluorescence microplate reader with excitation and emission wavelengths set to 643 and 670 nm, respectively. Percent inhibition was calculated with equation 1, and compound interference in the MBHA was calculated with equation 2.
To monitor helicase reaction kinetics and to calculate IC50 values, MBHAs were performed in 60 μL in white ½ area 96-well plates and measured in a Thermo Varioscan Multimode reader (Thermo Scientific) using the 643 nm excitation wavelength and 667 emission wavelengths. Reactions were again performed by first incubating all components except for ATP for two minutes, then initiated by injecting in 1/10 volume of ATP such that the final concentration of all components was as noted above. Conditions were as described above except that 5% v/v DMSO was present in each assay. Initial reaction velocities were calculated by fitting first-order decay equation to data obtained after ATP addition and calculating an initial velocity form the resulting amplitude and rate constant.
[formula] where, v0 is the velocity observed in DMSO-only controls inhibition, h is the Hillslope coefficient, [I] is the concentration of test compound.

Series [2] deals with T2, HCV helicase (Hepatitis C virus genotype 1b, UniProt Q9WMX2).
T2 construct: truncated C-terminally His-tagged NS3 proteins lacking the N-terminal protease, called NS3h; His-tag (C); made in house
As to the kind of experiment: MBHA with RNA substrate (HCV helicase-catalyzed RNA unwinding). The class given is biochemical. The settings on record: in words.
Source text: as §1, §2
To monitor helicase reaction kinetics and to calculate IC50 values, MBHAs were performed in 60 μL in white ½ area 96-well plates and measured in a Thermo Varioscan Multimode reader (Thermo Scientific) using the 643 nm excitation wavelength and 667 emission wavelengths. […] Initial reaction velocities were calculated by fitting first-order decay equation to data obtained after ATP addition and calculating an initial velocity form the resulting amplitude and rate constant.

Series [3] addresses MBHA DNA substrate. In words: Fluorescent intercalation displacement (FID) assay, ethidium bromide. The format is binding. The settings on record: FID; mean ± SD; read-out: DNA Binding (Ethidium Bromide) EC50. How it is done:
Fluorescent intercalation displacement (FID) assays (Boger, et al. (2001) J. Am. Chem. Soc. 123:5878-5891) were used to measure the ability of a compound to bind the MBHA substrate. The concentration at which half the ethidium bromide is displaced (EC50) was determined using the different conditions as above to more closely mimic the conditions of a standard helicase assay. Each 100 μL reaction contained 25 mM MOPS pH 6.5, 0.16 μM MBHA DNA substrate (lacking Cy5 and IBQ-RQ modifications), 2 μM ethidium bromide, and various concentrations of test compound. Fluorescence of ethidium bromide was monitored using excitation and emission wavelengths of 545 and 595 nm, respectively, on a Cary Eclipse fluorescence spectrophotometer in white 96-well plates. The amount of ethidium bromide-DNA complex fluorescence was used to estimate the ability of compounds to bind DNA, and therefore displace the fluorescent intercalator (ethidium bromide).
In Equation 4, Fc is the fluorescence in the presence of the compound, F(−) is the average DMSO-only negative controls, and F(+) is the average positive controls (100 μM berenil). EC50 values were from a normalized dose-response curve.
These twelve hits were then subjected to a counterscreen designed to independently identify DNA binding compounds using a modified fluorescent intercalator displacement (FID) assay (Boger, et al. (2001) supra). The FID assay used ethidium bromide to judge a compound's ability to bind DNA and was based on the assumption that a DNA binding compound would displace a fluorescent DNA intercalating agent, leading to an observable decrease in observed fluorescence. Compounds were tested at 1.5 μM in the presence of the 25 base pair substrate used in the helicase assays.

Series [4] deals with MBHA DNA substrate. As to the kind of experiment: Modified FID assay, SYBR Green I. The format is binding. The settings on record: FID; mean ± SD; read-out: DNA Binding (SYBR Green I) EC50. The protocol:
A modified FID assay, in which ethidium bromide was replaced with SYBR Green I (Invitrogen), was used to estimate a compounds affinity for the MBHA substrate. Reactions were performed as described above except that the DNA substrate was present at 0.32 μM, ethidium bromide was absent, and SYBER Green was present at (0.68 μM). Data were normalized as described above and fit to concentration-response equation using GraphPad Prism software. Titrations with each compound were performed in triplicate, and EC50 values from three independent titrations are reported ±standard deviations.

Series [5] addresses T3, NS3h_1b(con1) (Hepatitis C virus genotype 1b, UniProt Q9WMX2).
T3 construct: truncated C-terminally His-tagged NS3 proteins lacking the N-terminal protease, called NS3h; His-tag (C); made in house
In words: ATP hydrolysis assay (malachite green). The format is biochemical. The protocol:
A modified “malachite green” assay (Lanzetta, et al. (1979) Anal. Biochem. 100:95-97) was used to measure ATP hydrolysis. Fifty μL reactions contained 25 mM MOPS pH 6.5, 5 mM MgCl2, 2 mM ATP, 5 μg/mL BSA, 0.01% (v/v) TWEEN 20, 0.05 mM DTT, and poly(U) RNA (Saint Louis, Mo.) as indicated. Reactions were initiated by adding NS3h_1b(con1). Reactions were incubated for 15 minutes at 37° C. then stopped by mixing 40 μL of the reaction into 200 μL of the malachite green reagent (3 volumes 0.045% (w/v) malachite green, 1 volume 4.2% ammonium molybdate in 4N HCl, 0.05 volume of 20% TWEEN 20). […] Absorbance at 630 nm was proportional to the concentration of phosphate produced; free phosphate produced was measured against a standard curve.

For series [6], the system named is Huh-7.5 cells. In words: Cell viability assay ([…]-GLO). The format is cell-based, human. The settings on record: 10 μM. How it is done:
To assess compound toxicity toward Huh-7.5 cells, cells were plated and treated as above and cell viability was assessed using the […]-GLO luminescent cell viability kit (PROMEGA) following the manufacturer's instructions. Briefly, at the end of a 72 hour incubation period, the medium was aspirated and the cells were washed with 1×PBS, then an equal volume of growth medium and […]-GLO reagent was added and the lysis was initiated by mixing on an orbital shaker. The plate was incubated at 23° C. for 30 minutes and the luciferase activity was measured for 1 second using the FLUOSTAR Omega microplate reader (BMG Labtech).

Series [7] concerns the target T4, E. coli SSB-Cy5-dT15 complex (Escherichia coli, UniProt P0AGE0).
T4 construct: purchased Promega
In words: Escherichia coli SSB Cy5-dT15 binding assay (fluorescence polarization). The settings on record: disruption of Cy5-dT15-SSB complex; read-out: Cy5-dT15-SSB Binding IC50. The protocol:
The Escherichia coli SSB assay was performed in a total volume of 20.2 μl in 384-well, flat-bottom, low volume, black microplates (Greiner Bio-One). First, 20 μl of a assay solution (5 nM Cy5-[…]-3′ (Cy5-dT15, SEQ ID NO:5), 20 nM E. coli SSB (Promega), 25 mM MOPS, pH 7.5, 1.25 mM MgCl2, 0.0025 mg/ml BSA, 0.005% (v/v) TWEEN 20 and 0.025 mM DTT) was dispensed in each well, then 0.2 μl of dimethylsulfoxide (DMSO) or compound dissolved in DMSO was added by pin transfer, such that the final concentration of DMSO was 1% (v/v) in each assay.
For IC50 determination, assays were performed with 60 μl total volume in black flat bottomed 384-well microplates (Corning). First, 3.0 μl of DMSO or compound dissolved in DMSO was added, such that the final concentration of DMSO was 5% (v/v) in each assay. Then 57 μl of a assay solution (5 nM Cy5-dT15, 20 nM SSB, 25 mM MOPS, pH 7.5, 1.25 mM MgCl2, 0.0025 mg/ml BSA, 0.005% (v/v) TWEEN 20 and 0.025 mM DTT) was dispensed in each well. Polarization was monitored with a TECAN Infinite M1000 PRO multi-mode microplate reader by exciting at 635 nm (5 nm bandwidth) and measuring total fluorescence intensity, parallel and perpendicular polarized light at 667 nm (20 nm bandwidth).

[8] abbreviates: MBHA, DNA unwinding, mean ± SD of three titrations, read-out: Helicase IC50.
[9] abbreviates: standard HCV helicase MBHA (Table 9), read-out: DNA Unwinding IC50.

T4 sequence (P0AGE0 2-178, one chain of several): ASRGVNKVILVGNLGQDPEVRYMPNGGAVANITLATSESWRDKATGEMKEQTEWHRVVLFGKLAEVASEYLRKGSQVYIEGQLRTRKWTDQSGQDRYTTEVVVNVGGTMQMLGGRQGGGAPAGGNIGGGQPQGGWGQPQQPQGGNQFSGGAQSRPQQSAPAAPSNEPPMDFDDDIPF
T1 sequence (Q9WMX2 1192-1657): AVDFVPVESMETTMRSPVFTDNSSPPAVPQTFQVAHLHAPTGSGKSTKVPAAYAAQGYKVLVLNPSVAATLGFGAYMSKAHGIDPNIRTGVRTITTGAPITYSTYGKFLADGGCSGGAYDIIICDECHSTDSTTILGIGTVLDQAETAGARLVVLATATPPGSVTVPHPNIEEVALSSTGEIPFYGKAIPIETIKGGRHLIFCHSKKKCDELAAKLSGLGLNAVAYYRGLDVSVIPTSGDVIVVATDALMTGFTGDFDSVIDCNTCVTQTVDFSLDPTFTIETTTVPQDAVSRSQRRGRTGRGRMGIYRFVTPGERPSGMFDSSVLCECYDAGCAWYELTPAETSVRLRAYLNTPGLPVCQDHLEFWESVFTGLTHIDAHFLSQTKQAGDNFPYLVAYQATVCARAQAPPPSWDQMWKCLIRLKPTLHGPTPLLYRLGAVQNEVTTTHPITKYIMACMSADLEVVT
T3 sequence (Q9WMX2 1192-1657): as above
T2 sequence (Q9WMX2 1192-1657): as above

Turning to `CO[C@@H]1[C@H](O)C[C@@H](O[C@@H]2C[C@H](Oc3cc4cc5c(c(O)c4c(O)c3C)C(=O)[C@@H](O[C@H]3C[C@@H](O[C@H]4C[C@@H](O[C@H]6C[C@](C)(O)[C@@H](OC(C)=O)[C@H](C)O6)[C@H](O)[C@@H](C)O4)[C@H](O)[C@@H](C)O3)[C@H]([C@H](OC)C(=O)[C@@H](O)[C@@H](C)O)C5)O[C@H](C)[C@@H]2OC(C)=O)O[C@@H]1C` [Chromomycin A3, reference compound], the IC50 in series [1] (setting [8]) was found to be 0.15 ± 0.03 µM. For the same compound, the “effect on HCV helicase catalyzed RNA unwinding” value in series [2] is “no effect”.
For `CCOc1ccc2c(NNC(=O)c3cnccn3)c3c(nc2c1)CCCC3` [Compound 1, reference compound], the IC50 in series [1] (setting [8]) and in series [5] was over 100 µM each time. Also, the concentration for a half-maximal effect (EC50) in series [3] and in series [4] was over 100 µM in each case. Further, in series [6], the toxicity to cells result was “None of the comparison helicase inhibitors were particularly toxic at 10 μM except for 1”.
For the compound `Cc1cc(C(O)(c2ccc(Nc3ccccc3)cc2)c2ccc(Nc3ccc(S(=O)(=O)O)cc3)cc2)ccc1N` (centres unmarked) [Compound 3, reference compound], the values for the 50% inhibitory concentration (IC50) in series [1] (setting [8]) and in series [5] were 17 ± 7 µM and over 100 µM, respectively. Also, the EC50 is 4 ± 2 µM in series [3] and 20 ± 2 µM in series [4].
`CN1CCN(Cc2cc(CN3CCN(C)CC3)c(O)c(=O)c(CN3CCN(C)CC3)c2)CC1` [Compound 4, reference compound]: the IC50 in series [1] (setting [8]) was 19 ± 8 µM; in series [5] it was over 100 µM. The EC50 in series [3] was over 100 µM; in series [4], 74 ± 21 µM.
As to `Cc1ccc2nc(-c3ccc(N)cc3)sc2c1S(=O)(=O)O` [Compound P1a, 2-(4-aminophenyl)-6-methylbenzo[d]thiazole-7-sulfonic acid], the IC50 in series [1] (setting [8]) was 70 ± 31 µM; in series [1] (setting [9]) it was 70 ± 31 µM; in series [5], over 100 µM; in series [7] it was 13 ± 4 µM. The EC50 in series [3] and in series [4] was over 100 µM in each case.
Turning to `Cc1cc2sc(-c3ccc(N)cc3)nc2cc1S(=O)(=O)O` [Compound P1b, 2-(4-aminophenyl)-6-methylbenzo[d]thiazole-5-sulfonic acid], the IC50 in series [1] (setting [8]) was 122 ± 5 µM; in series [1] (setting [9]), 122 ± 5 µM; in series [5] it was over 100 µM; in series [7], 19 ± 8 µM. Further, the EC50 in series [3] and in series [4] was over 100 µM throughout.
As for `Cc1cc2sc(-c3ccc4nc(-c5ccc(N)cc5)sc4c3)nc2cc1S(=O)(=O)O` [Compound P2b, 2′-(4-aminophenyl)-6-methyl-[2,6′-bibenzo[d]thiazole]-5-sulfonic acid], the IC50 in series [1] (setting [8]) was 10 ± 4.6 µM; in series [1] (setting [9]) it was 7 ± 4 µM; in series [5] it was over 100 µM; in series [7] it was 1 µM. Besides, the EC50 in series [3] was found to be 73 ± 36 µM; in series [4], 32 ± 3 µM.
`Cc1ccc2c(c1)sc(-c1ccc(N(C)C)cc1)[n+]2C.[Cl-]` [thioflavine T, reference compound]: the “effect on HCV helicase catalyzed DNA unwinding” value in series [1] (in words) is on record as “no effect”. Moreover, in series [2], the “effect on HCV helicase catalyzed RNA unwinding” value is “no effect”.

What is called IC50 is the concentration at which inhibition is half-maximal. One may read the EC50 as the concentration needed to bring the measured effect to its halfway point.
